This assay has as its target human F508del-CFTR (Homo sapiens, UniProt P13569, DEL508-508). The experiment in a line: F508del-CFTR cell surface expression (corrector activity), DiscoveRx ß-galactosidase complementation chemiluminescence assay in recombinant U2OS cell line.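 As to all read-outs here: U2OS cells co-expressing ProLink-tagged F508del-CFTR and a membrane-anchored enzyme acceptor, where more surface CFTR restores β-galactosidase activity measured by chemiluminescence.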 The conditions noted are these: U2OS cell line, 16h compound incubation; for pEC50: EC50, F508del-CFTR cell surface expression, geomean values; for Emax: U2OS, in relation to the Emax of the corrector lumacaftor (=100%), arithmetic mean values.

Here are results for 14 compounds from patent US20240208992A1, “MACROCYCLES AS CFTR MODULATORS” (Idorsia Pharmaceuticals Ltd, priority 2021, published 2024).

pEC50: −log10 of the molar value.

Chain of human F508del-CFTR (P13569 with tags, fused parts or gaps DEL508-508): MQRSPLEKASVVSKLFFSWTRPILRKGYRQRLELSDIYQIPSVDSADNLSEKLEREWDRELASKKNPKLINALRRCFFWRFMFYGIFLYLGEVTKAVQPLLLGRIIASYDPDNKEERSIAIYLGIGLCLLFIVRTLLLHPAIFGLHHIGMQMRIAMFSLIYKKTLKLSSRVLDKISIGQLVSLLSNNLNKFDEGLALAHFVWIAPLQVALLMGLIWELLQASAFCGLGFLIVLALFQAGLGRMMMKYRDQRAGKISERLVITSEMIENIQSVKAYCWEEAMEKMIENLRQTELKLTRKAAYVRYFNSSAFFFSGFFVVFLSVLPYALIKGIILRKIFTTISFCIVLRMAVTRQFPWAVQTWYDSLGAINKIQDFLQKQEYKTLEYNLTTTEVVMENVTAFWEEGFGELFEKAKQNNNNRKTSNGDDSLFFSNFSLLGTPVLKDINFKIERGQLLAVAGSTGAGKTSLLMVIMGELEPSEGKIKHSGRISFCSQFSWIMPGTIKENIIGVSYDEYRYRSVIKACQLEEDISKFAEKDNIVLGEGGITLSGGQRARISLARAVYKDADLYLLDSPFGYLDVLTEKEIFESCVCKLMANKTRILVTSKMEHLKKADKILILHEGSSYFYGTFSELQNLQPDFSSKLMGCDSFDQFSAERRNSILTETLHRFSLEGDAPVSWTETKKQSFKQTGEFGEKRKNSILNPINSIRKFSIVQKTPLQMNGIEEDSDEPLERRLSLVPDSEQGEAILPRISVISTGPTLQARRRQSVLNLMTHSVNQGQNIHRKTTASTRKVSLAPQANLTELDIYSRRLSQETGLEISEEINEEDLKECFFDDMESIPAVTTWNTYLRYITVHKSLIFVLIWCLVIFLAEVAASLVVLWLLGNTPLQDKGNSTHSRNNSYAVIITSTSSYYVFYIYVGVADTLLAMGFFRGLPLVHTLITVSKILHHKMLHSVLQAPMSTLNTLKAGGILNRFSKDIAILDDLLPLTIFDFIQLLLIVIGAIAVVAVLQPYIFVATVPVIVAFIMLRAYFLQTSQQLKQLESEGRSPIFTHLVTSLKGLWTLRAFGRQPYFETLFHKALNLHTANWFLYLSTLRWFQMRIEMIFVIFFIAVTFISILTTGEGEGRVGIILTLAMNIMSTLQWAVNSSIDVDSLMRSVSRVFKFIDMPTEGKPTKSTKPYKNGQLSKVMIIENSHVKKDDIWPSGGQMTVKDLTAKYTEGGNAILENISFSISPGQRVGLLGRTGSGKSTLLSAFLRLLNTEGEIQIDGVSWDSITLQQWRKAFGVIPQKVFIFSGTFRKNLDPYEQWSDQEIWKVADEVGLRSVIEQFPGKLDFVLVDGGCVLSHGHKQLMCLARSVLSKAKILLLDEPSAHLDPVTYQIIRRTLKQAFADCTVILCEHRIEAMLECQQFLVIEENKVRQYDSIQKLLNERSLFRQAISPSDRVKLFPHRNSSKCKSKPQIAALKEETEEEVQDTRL

For the compound `COc1cccc2c1C(=O)N[C@H](C(=O)NCCc1ccc3c(c1)OCCO3)CC(=O)N(C)[C@@H](CC(C)C)C(=O)N(CCC1CCCCC1)CC(=O)N[C@H](Cc1ccccc1)CO2` [Example 149, (3R,9S,13S)-3-benzyl-7-(2-cyclohexylethyl)-N-(2-(2,3-dihydrobenzo[b][1,4]dioxin-6-yl)ethyl)-9-isobutyl-16-methoxy-10-methyl-5,8,11,15-tetraoxo-2,3,4,5,6,7,8,9,10,11,12,13,14,15-tetradecahydrobenzo[p][1]oxa[4,7,10,14]tetraazacycloheptadecine-13-carboxamide], the pEC50 is 6.72 and the Emax was found to be 259%.

On to `COc1cccc2c1C(=O)N[C@H](C(=O)NCCc1cccc(OC(F)F)c1)CC(=O)N(C)[C@@H](CC(C)C)C(=O)N(CCC1CCCCC1)CC(=O)N[C@H](Cc1ccccc1)CO2` [Example 150, (3R,9S,13S)-3-benzyl-7-(2-cyclohexylethyl)-N-(3-(difluoromethoxy)phenethyl)-9-isobutyl-16-methoxy-10-methyl-5,8,11,15-tetraoxo-2,3,4,5,6,7,8,9,10,11,12,13,14,15-tetradecahydrobenzo[p][1]oxa[4,7,10,14]tetraazacycloheptadecine-13-carboxamide], for which the pEC50 was 6.82 and the Emax was determined as 130%.

Consider `COc1ccc(CCNC(=O)[C@@H]2CC(=O)N(C)[C@@H](CC(C)C)C(=O)N(C)CC(=O)N[C@H](Cc3ccccc3)COc3cc4c(cc3C(=O)N2)OCO4)cc1` [Example 153, (7R,13S,17S)-7-benzyl-13-isobutyl-N-(4-methoxyphenethyl)-11,14-dimethyl-9,12,15,19-tetraoxo-6,7,8,9,10,11,12,13,14,15,16,17,18,19-tetradecahydro-[1,3]dioxolo[4′,5′:4,5]benzo[1,2-p][1]oxa[4,7,10,14]tetraazacycloheptadecine-17-carboxamide], for which the pEC50 is 6.34 and the Emax was 115%.

`CC(C)C[C@H]1C(=O)N(CCC2CCOCC2)CC(=O)N[C@H](Cc2ccccc2)COc2cc3c(cc2C(=O)N[C@H](C(=O)NCCc2ccc4c(c2)OCO4)CC(=O)N1C)OCO3` [Example 154, (7R,13S,17S)-N-(2-(benzo[d][1,3]dioxol-5-yl)ethyl)-7-benzyl-13-isobutyl-14-methyl-9,12,15,19-tetraoxo-11-(2-(tetrahydro-2H-pyran-4-yl)ethyl)-6,7,8,9,10,11,12,13,14,15,16,17,18,19-tetradecahydro-[1,3]dioxolo[4′,5′:4,5]benzo[1,2-p][1]oxa[4,7,10,14]tetraazacycloheptadecine-17-carboxamide]: the pEC50 is 6.40 and the Emax amounted to 102%.

Turning to `COc1cc(CCNC(=O)[C@@H]2CC(=O)N(C)[C@@H](CC(C)C)C(=O)N(CCC3CCCCC3)CC(=O)N[C@H](Cc3ccccc3)COc3cccc(OC)c3C(=O)N2)ccn1` [Example 158, (3R,9S,13S)-3-benzyl-7-(2-cyclohexylethyl)-9-isobutyl-16-methoxy-N-(2-(2-methoxypyridin-4-yl)ethyl)-10-methyl-5,8,11,15-tetraoxo-2,3,4,5,6,7,8,9,10,11,12,13,14,15-tetradecahydrobenzo[p][1]oxa[4,7,10,14]tetraazacycloheptadecine-13-carboxamide], the pEC50 is 6.50 and the Emax was found to be 169%.

For `COc1cc2c(cc1OC)C(=O)N[C@H](C(=O)NCCc1ccc3c(c1)OCO3)CC(=O)N(C)[C@@H](CC(C)C)C(=O)N(C[C@H]1CCCCO1)CC(=O)N[C@H](Cc1ccccc1)CO2` [Example 159, (3R,9S,13S)-N-(2-(benzo[d][1,3]dioxol-5-yl)ethyl)-3-benzyl-9-isobutyl-17,18-dimethoxy-10-methyl-5,8,11,15-tetraoxo-7-(((R)-tetrahydro-2H-pyran-2-yl)methyl)-2,3,4,5,6,7,8,9,10,11,12,13,14,15-tetradecahydrobenzo[p][1]oxa[4,7,10,14]tetraazacycloheptadecine-13-carboxamide], the pEC50 is 6.41 and the Emax was 100%.

For the compound `COc1cc2c(cc1OC)C(=O)N[C@H](C(=O)NCCc1ccc3c(c1)OCO3)CC(=O)N(C)[C@@H](CC(C)C)C(=O)N(C[C@@H]1CCCCO1)CC(=O)N[C@H](Cc1ccccc1)CO2` [Example 160, (3R,9S,13S)-N-(2-(benzo[d][1,3]dioxol-5-yl)ethyl)-3-benzyl-9-isobutyl-17,18-dimethoxy-10-methyl-5,8,11,15-tetraoxo-7-(((S)-tetrahydro-2H-pyran-2-yl)methyl)-2,3,4,5,6,7,8,9,10,11,12,13,14,15-tetradecahydrobenzo[p][1]oxa[4,7,10,14]tetraazacycloheptadecine-13-carboxamide], the pEC50 was 6.65 and the Emax turned out to be 116%.

In the case of `COc1cc2c(cc1OC)C(=O)N[C@H](C(=O)NCCc1ccc3c(c1)OCCCC3)CC(=O)N(C)[C@@H](CC(C)C)C(=O)N(C)CC(=O)N[C@H](Cc1ccccc1)CO2` [Example 161, (3R,9S,13S)-3-benzyl-9-isobutyl-17,18-dimethoxy-7,10-dimethyl-5,8,11,15-tetraoxo-N-(2-(2,3,4,5-tetrahydrobenzo[b]oxepin-8-yl)ethyl)-2,3,4,5,6,7,8,9,10,11,12,13,14,15-tetradecahydrobenzo[p][1]oxa[4,7,10,14]tetraazacycloheptadecine-13-carboxamide], the pEC50 is 6.60 and the Emax was 137%.

Regarding `COc1ccc(C2(CNC(=O)[C@@H]3CC(=O)N(C)[C@@H](CC(C)C)C(=O)N(C)C4(CC4)C(=O)N[C@H](Cc4ccccc4)COc4cnc5ccc(F)cc5c4C(=O)N3)CC2)cc1OC` [Example 166, (3′S,7′S,13′R)-13′-benzyl-N-((1-(3,4-dimethoxyphenyl)cyclopropyl)methyl)-20′-fluoro-7′-isobutyl-6′,9′-dimethyl-1′,5′,8′,11′-tetraoxo-2′,3′,4′,5′,6′,7′,8′,9′,11′,12′,13′,14′-dodecahydro-1′H-spiro[cyclopropane-1,10′-[1]oxa[4,7,10,14]tetraazacycloheptadecino[17,16-c]quinoline]-3′-carboxamide], the pEC50 is 6.20 and the Emax was determined as 111%.

For `CC(C)C[C@H]1C(=O)N(C)C2(CC2)C(=O)N[C@H](Cc2ccccc2)COc2cnc3ccc(F)cc3c2C(=O)N[C@H](C(=O)NCCc2cccc(S(C)(=O)=O)c2)CC(=O)N1C` [Example 167, (3′S,7′S,13′R)-13′-benzyl-20′-fluoro-7′-isobutyl-6′,9′-dimethyl-N-(3-(methylsulfonyl)phenethyl)-1′,5′,8′,11′-tetraoxo-2′,3′,4′,5′,6′,7′,8′,9′,11′,12′,13′,14′-dodecahydro-1′H-spiro[cyclopropane-1,10′-[1]oxa[4,7,10,14]tetraazacycloheptadecino[17,16-c]quinoline]-3′-carboxamide], the pEC50 was 6.09 and the Emax worked out at 238%.

In the case of `CC(C)C[C@H]1C(=O)N(C)C2(CC2)C(=O)N[C@H](Cc2ccccc2)COc2cnc3ccc(F)cc3c2C(=O)N[C@H](C(=O)NCCc2cccc(C#N)c2)CC(=O)N1C` [Example 168, (3′S,7′S,13′R)-13′-benzyl-N-(3-cyanophenethyl)-20′-fluoro-7′-isobutyl-6′,9′-dimethyl-1′,5′,8′,11′-tetraoxo-2′,3′,4′,5′,6′,7′,8′,9′,11′,12′,13′,14′-dodecahydro-1′H-spiro[cyclopropane-1,10′-[1]oxa[4,7,10,14]tetraazacycloheptadecino[17,16-c]quinoline]-3′-carboxamide], the pEC50 is 6.47 and the maximal effect (Emax) stood at 193%.

As to `CC(C)C[C@H]1C(=O)N(C)C2(CC2)C(=O)N[C@H](Cc2ccccc2)COc2cnc3ccc(F)cc3c2C(=O)N[C@H](C(=O)NCCc2cccc(C(F)(F)F)c2)CC(=O)N1C` [Example 169, (3′S,7′S,13′R)-13′-benzyl-20′-fluoro-7′-isobutyl-6′,9′-dimethyl-1′,5′,8′,11′-tetraoxo-N-(3-(trifluoromethyl)phenethyl)-2′,3′,4′,5′,6′,7′,8′,9′,11′,12′,13′,14′-dodecahydro-1′H-spiro[cyclopropane-1,10′-[1]oxa[4,7,10,14]tetraazacycloheptadecino[17,16-c]quinoline]-3′-carboxamide], the pEC50 is 6.48 and the Emax is 170%.

For `CC(C)C[C@H]1C(=O)N(C)C2(CC2)C(=O)N[C@H](Cc2ccccc2)COc2cnc3ccc(F)cc3c2C(=O)N[C@H](C(=O)NCCc2ccc(N3CCOCC3)cc2)CC(=O)N1C` [Example 170, (3′S,7′S,13′R)-13′-benzyl-20′-fluoro-7′-isobutyl-6′,9′-dimethyl-N-(4-morpholinophenethyl)-1′,5′,8′,11′-tetraoxo-2′,3′,4′,5′,6′,7′,8′,9′,11′,12′,13′,14′-dodecahydro-1′H-spiro[cyclopropane-1,10′-[1]oxa[4,7,10,14]tetraazacycloheptadecino[17,16-c]quinoline]-3′-carboxamide], the pEC50 is 6.48 and the Emax was determined as 267%.

As to `CC(C)C[C@H]1C(=O)N2CCCC[C@@H]2C(=O)N[C@H](Cc2ccccc2)COc2cnc3ccc(F)cc3c2C(=O)N[C@H](C(=O)NCCc2noc(C(C)C)n2)CC(=O)N1C` [Example 171, (9S,13S,19aR,22R)-22-benzyl-5-fluoro-13-isobutyl-N-(2-(5-isopropyl-1,2,4-oxadiazol-3-yl)ethyl)-12-methyl-7,11,14,20-tetraoxo-7,8,9,10,11,12,13,14,17,18,19,19a,20,21,22,23-hexadecahydro-16H-pyrido[2′,1′:6,7][1]oxa[4,7,10,14]tetraazacycloheptadecino[17,16-c]quinoline-9-carboxamide], the pEC50 is 6.84 and the Emax was determined as 301%.
